Data taken from US6436445B1, “Antimicrobial and antiviral compositions containing an oxidizing species” (Ecolab Inc., priority 1999, dated 2002).
Like-named read-outs stand apart in the source and are kept apart here. Marks after values point to notes of the source that are not given here.

What was measured:
E. coli ATCC 11229 = test: Log reduction of bacteria by liquid compositions, 30 second contact (E. coli); assay type: cell-based; conditions: for Log Reduction E. coli / Log Reduction: 30 second contact time; for Log Reduction E. coli: vs. untreated control; for Log Reduction: E. coli
Description: (§1) A variety of nitrogen sources are utilized. Results recorded include the color of the solution and the microbial log reduction of gram-positive and gram-negative bacteria (E. coli and S. aureus, respectively). As shown earlier there is a direct correlation between color of the solution and microbial efficacy. […] Looking at Table 6, there is an obvious direct correlation between color and antimicrobial activity. Table 7 compares formulas of the present invention with prior art examples for the reduction of gram-positive and gram-negative bacteria. […] Results recorded include the pH of the solution, the color of the solution and the log reduction in microbe.

S. aureus = test: Log reduction of bacteria by liquid compositions, 30 second contact (S. aureus); assay type: cell-based; conditions: for Log Reduction S. aureus: vs. untreated control
Description: as §1

Feline parvovirus = conditions: cited from earlier work
[1] = test system: Penicillium expansum (ATCC 7861); test: Mold spore suspension test, exposure, neutralization, plating on Sabouraud Dextrose agar; assay type: cell-based; conditions: P. expansum, 15 minute contact time
[2] = test system: Total bacterial flora on prerigor beef tissue surfaces; test: Microbial reduction on prerigor beef tissue surfaces, 30 second treatment; assay type: cell-based
[3] = published results against Feline parvovirus
[4] = Actives Conc. 300 ppm, 30 second exposure

## CCCCCCCC[N+](C)(C)[O-] [C8 amine oxide, Octyl dimethyl aznine oxide]
E. coli ATCC 11229
  Log Reduction E. coli: 0 log
S. aureus; 30 second contact time
  Log Reduction S. aureus: 0 log

## CCO [Ethanol]
Feline parvovirus; [3]
  Minimum Concentration (for 10-minute inactivation): 500,000 ppm

## OO [Formula H2O2, hydrogen peroxide]
[1]; N-source:H2O2:KI 0:532:0 ppm, pH 5
  Log Reduction: 0.0* log
E. coli ATCC 11229
  Log Reduction E. coli: 0.2 log
E. coli ATCC 11229; [4]
  Log Reduction (CFU/ml) E. coli: 0.2 log CFU/ml
E. coli ATCC 11229; N-source:H2O2:KI 0:300:0 ppm, pH 5
  Log Reduction: 0.2 log
S. aureus; 30 second contact time
  Log Reduction S. aureus: 0 log
S. aureus; [4]
  Log Reduction (CFU/ml) S. aureus: 0.4 log CFU/ml
S. aureus; S. aureus, N-source:H2O2:KI 0:300:0 ppm, pH 5, 30 second contact time
  Log Reduction: 0.4 log
Z. bailii; N-source:H2O2:KI 0:532:0 ppm, pH 3, 30 second contact time
  Log Reduction: 0.1 log
Z. bailii; N-source:H2O2:KI 0:532:0 ppm, pH 5, 30 second contact time
  Log Reduction: 0.1 log
Z. bailii; N-source:H2O2:KI 0:532:0 ppm, pH 7, 30 second contact time
  Log Reduction: 0.1 log

## O=CCCCC=O [Glutaraldehyde]
Feline parvovirus; published, (2-log)
  Minimum Concentration (for 10-minute inactivation): 10,000

## CC(C)O [IPA]
Feline parvovirus; [3]
  Minimum Concentration (for 10-minute inactivation): 500,000 ppm

## [I-].[K+] [KI, potassium iodide]
[1]; N-source:H2O2:KI 0:0:500 ppm, pH 5
  Log Reduction: 0.0* log
E. coli ATCC 11229
  Log Reduction E. coli: 0 log
S. aureus; 30 second contact time
  Log Reduction S. aureus: 0 log

## [Na+].[O-]Cl [NaOCl]
Feline parvovirus; [3]
  Minimum Concentration (for 10-minute inactivation): 2,000 ppm

## CCCCCCCCCCCCCCCC[n+]1ccccc1 [cetyl pyridinium chloride]
[2]
  Log Reduction: 0.5 log

## C[N+](C)(C)CCO.[Cl-] [choline chloride]
E. coli ATCC 11229
  Log Reduction E. coli: 0 log
E. coli ATCC 11229; N-source:H2O2:KI 300:0:0 ppm, pH 7
  Log Reduction: 0.0 log
S. aureus; 30 second contact time
  Log Reduction S. aureus: 0 log
Z. bailii; N-source:H2O2:KI 300:0:0 ppm, pH 7, 30 second contact time
  Log Reduction: 0.0 log

## CCCCCCCCCC[N+](C)(C)CCCCCCCCCC.[Cl-] [didecyl dimethyl ammonium chloride]
[1]; N-source:H2O2:KI 100:0:0 ppm, pH 7
  Log Reduction: 1.0* log
Z. bailii; N-source:H2O2:KI 20:0:0 ppm, pH 3, 30 second contact time
  Log Reduction: 0.1 log

## CC(O)C(=O)O (centres unmarked) [lactic acid]
[2]; Active Antimicrobial 5000 ppm, treated 30 seconds, drained 10 minutes, relative to untreated starting meat carcass
  Log Reduction: 0.8 log

## Oc1ccccc1-c1ccccc1 [o-phenylphenol G, o-phenylphenol]
Feline parvovirus; [3]
  Minimum Concentration (for 10-minute inactivation): 100,000 ppm

## cocoa dimethyl betaine
E. coli ATCC 11229
  Log Reduction E. coli: 0 log
S. aureus; 30 second contact time
  Log Reduction S. aureus: 0 log

## cocodimethyl betaine
E. coli ATCC 11229
  Log Reduction E. coli: 0 log
S. aureus; 30 second contact time
  Log Reduction S. aureus: 0 log
